Reference: ChEMBL document CHEMBL5380826, “Conformationally Restricted σ1 Receptor Antagonists from (-)-Isopulegol” (J Med Chem, 2023)
Active and inactive are the calls of the source. The rule behind the calls is not given here.

Columns and labels:
[1] = molecular target: Glutamate receptor ionotropic, NMDA 2B (Mus musculus, UniProt P35438+Q01097); experiment: Displacement of [3H]ifenprodil from GluN2B in mouse LTK cells assessed as inhibition constant measured after 120 mins by scintillation counting method; assay type: cell-based
[2] = molecular target: Sigma non-opioid intracellular receptor 1 (Cavia porcellus, UniProt Q60492); experiment: Displacement of [3H]-(+)-pentazocine from guinea pig brain membrane sigma 1 receptor assessed as inhibition constant measured after 120 mins by scintillation counting method; assay type: cell membranes
[3] = molecular target: T1, Sigma intracellular receptor 2 (Rattus norvegicus, UniProt Q5U3Y7); experiment: Displacement of [3H]di-o-tolylguanidine from rat liver membrane sigma 2 receptor assessed as inhibition constant measured after 120 mins by scintillation counting method; assay type: cell membranes
T1 sequence (Q5U3Y7 whole entry): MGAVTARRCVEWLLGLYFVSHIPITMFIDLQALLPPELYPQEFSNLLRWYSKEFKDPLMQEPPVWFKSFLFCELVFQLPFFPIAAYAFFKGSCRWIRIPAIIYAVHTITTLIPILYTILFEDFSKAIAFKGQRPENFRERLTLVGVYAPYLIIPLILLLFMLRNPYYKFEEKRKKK

[4] = molecular target: Glutamate receptor ionotropic, NMDA 2B (Mus musculus) (UniProt Q01097); experiment: Displacement of [3H]ifenprodil from GluN2B in mouse LTK cells at 1 uM measured after 120 mins by scintillation counting method relative to control; assay type: cell-based
[5] = Plasma protein binding in human by HPAC method; assay type: ADME, cell-free; settings: read-out: PPB (converted)
[6] = Lipophilicity, logD of the compound at pH 7.4 by LC-MS analysis; assay type: physicochemical; settings: buffer
[7] = molecular target: T2, Sigma intracellular receptor 2 (Rattus norvegicus) (UniProt Q5U3Y7); experiment: Displacement of [3H]di-o-tolylguanidine from rat liver membrane sigma 2 receptor at 1 uM measured after 120 mins by scintillation counting method relative to control; assay type: cell membranes
T2 sequence (whole entry): T1 sequence (Q5U3Y7 whole entry)

Mus musculus [8] = experiment: Antiallodynic activity in capsaicin-induced mechanical allodynia CD1 mouse model assessed as increase in paw withdrawal latency at 16 mg/kg, sc pretreated with PRE-084 followed by compound addition; assay type: functional, organism-based
Mus musculus [9] = experiment: Antiallodynic activity in capsaicin-induced mechanical allodynia CD1 mouse model assessed as increase in paw withdrawal latency at 4 to 32 mg/kg, sc pretreated for 30 mins followed by capsaicin addition and measured after 15 mins; assay type: functional, organism-based; settings: dose 4-32 mg/kg, time 45.0 min
Mus musculus [10] = experiment: Antiallodynic activity in capsaicin-induced allodynia CD1 mouse model at 16 mg/kg, sc pretreated for 30 mins followed by capsaicin addition and measured after 15 mins relative to control; assay type: functional; settings: time 45 min, 0.75 h
[11] = Metabolic stability in C57BL/6 mouse liver microsomes assessed as compound remaining incubated for 90 mins in presence of NADPH by LC-MS analysis; assay type: ADME, Microsome; settings: read-out: Activity
Mus musculus [12] = experiment: Antiallodynic activity in sc dosed capsaicin-induced allodynia CD1 mouse model pretreated for 30 mins followed by capsaicin addition and measured after 15 mins; assay type: functional; settings: CD1, 0.75 h, time 45 min
Mus musculus [13] = experiment: Antiallodynic activity in ip dosed capsaicin-induced allodynia CD1 mouse model measured after 15 mins; assay type: functional; settings: CD1, 0.25 h
Mus musculus [14] = experiment: Antiallodynic activity in capsaicin-induced mechanical allodynia CD1 mouse model assessed as increase in paw withdrawal latency at 32 mg/kg, sc pretreated for 30 mins followed by capsaicin addition and measured after 15 mins; assay type: functional, organism-based; settings: time 45.0 min
Mus musculus [15] = experiment: Antiallodynic activity in capsaicin-induced allodynia CD1 mouse model at 16 mg/kg, ip measured after 15 mins relative to control; assay type: functional; settings: 0.25 h

Chain of Sigma non-opioid intracellular receptor 1 (Q60492 whole entry): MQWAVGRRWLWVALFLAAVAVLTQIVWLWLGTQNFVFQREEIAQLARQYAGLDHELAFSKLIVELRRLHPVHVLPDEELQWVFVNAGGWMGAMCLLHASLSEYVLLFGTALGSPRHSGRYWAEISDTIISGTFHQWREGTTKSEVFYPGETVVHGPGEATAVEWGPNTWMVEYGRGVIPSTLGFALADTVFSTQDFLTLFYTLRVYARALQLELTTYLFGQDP
Chain of Glutamate receptor ionotropic, NMDA 2B (Mus musculus) (Q01097 whole entry): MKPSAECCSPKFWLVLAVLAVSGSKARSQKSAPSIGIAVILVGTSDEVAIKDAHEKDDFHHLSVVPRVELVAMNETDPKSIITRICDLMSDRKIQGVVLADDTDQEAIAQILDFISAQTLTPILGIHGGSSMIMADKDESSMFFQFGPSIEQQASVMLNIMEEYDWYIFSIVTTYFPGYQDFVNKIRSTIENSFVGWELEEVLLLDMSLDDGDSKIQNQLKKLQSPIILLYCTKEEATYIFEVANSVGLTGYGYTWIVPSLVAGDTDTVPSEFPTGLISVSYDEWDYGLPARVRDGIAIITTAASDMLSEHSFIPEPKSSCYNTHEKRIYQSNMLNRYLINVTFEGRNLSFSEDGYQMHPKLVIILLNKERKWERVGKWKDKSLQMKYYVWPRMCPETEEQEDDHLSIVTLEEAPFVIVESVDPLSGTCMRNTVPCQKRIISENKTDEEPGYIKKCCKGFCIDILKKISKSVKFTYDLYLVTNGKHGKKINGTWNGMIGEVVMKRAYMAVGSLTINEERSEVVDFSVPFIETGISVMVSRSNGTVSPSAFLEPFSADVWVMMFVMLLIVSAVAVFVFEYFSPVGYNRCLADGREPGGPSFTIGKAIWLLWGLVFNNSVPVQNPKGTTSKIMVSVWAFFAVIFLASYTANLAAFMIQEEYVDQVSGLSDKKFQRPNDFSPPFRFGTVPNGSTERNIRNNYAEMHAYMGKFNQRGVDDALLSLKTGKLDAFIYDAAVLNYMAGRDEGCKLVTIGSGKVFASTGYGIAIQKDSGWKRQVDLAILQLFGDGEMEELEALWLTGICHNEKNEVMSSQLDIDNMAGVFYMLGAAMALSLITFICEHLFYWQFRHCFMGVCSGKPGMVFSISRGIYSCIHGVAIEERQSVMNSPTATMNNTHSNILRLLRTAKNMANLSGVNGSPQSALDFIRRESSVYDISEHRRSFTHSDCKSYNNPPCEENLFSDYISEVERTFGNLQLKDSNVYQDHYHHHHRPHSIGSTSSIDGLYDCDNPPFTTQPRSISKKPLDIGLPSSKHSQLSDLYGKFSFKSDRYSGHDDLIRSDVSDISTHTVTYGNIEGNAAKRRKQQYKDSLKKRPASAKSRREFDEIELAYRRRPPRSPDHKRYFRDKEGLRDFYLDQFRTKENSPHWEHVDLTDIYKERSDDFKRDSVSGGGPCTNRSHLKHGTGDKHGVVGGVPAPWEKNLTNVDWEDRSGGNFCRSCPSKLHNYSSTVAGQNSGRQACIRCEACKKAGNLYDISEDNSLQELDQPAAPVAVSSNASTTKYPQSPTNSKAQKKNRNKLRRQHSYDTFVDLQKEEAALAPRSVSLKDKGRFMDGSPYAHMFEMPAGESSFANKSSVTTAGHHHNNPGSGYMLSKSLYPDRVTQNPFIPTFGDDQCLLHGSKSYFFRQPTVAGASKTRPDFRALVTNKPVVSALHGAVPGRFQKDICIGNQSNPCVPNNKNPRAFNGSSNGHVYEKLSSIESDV
Chain of Glutamate receptor ionotropic, NMDA 2B (Q01097 whole entry, one chain of several): as the sequence (Q01097 whole entry) above

Structure (SMILES)	Ki [1] [nM]	Ki [2] [nM]	Ki [3] [nM]	further results
C[C@@H]1CC[C@@H]2[C@@H](C1)OCO[C@]2(C)CNCCCCc1ccccc1	408	9.7	322	–
C[C@@H]1CC[C@@H]2[C@@H](C1)OC(C)(C)O[C@]2(C)CN1CCC(Cc2ccccc2)CC1	423	114	880	–
C[C@@H]1CC[C@@H]2[C@@H](C1)O[C@@H]1CN(CCCCc3ccccc3)C[C@@]2(C)O1	–	805	1600	inhibition [4]: 0%
C[C@@H]1CC[C@@H]2[C@H](C1)OCO[C@@]2(C)CNCCCCc1ccccc1	313	8.6	525	–
C[C@@H]1CC[C@@H]([C@](C)(O)CN2CCC(Cc3ccccc3)CC2)[C@H](O)C1	92	2.8	194	–
C[C@@H]1CC[C@@H]2[C@@H](C1)OCO[C@@]2(C)CNCCCCc1ccccc1	61	69	86	fraction unbound [5]: 0.061; logD [6]: 2.67
CN1CCN(CCc2ccc(Cl)c(Cl)c2)CC1	49	449	–	–
C[C@@H]1CC[C@@H]2[C@@H](C1)OC(C)(C)O[C@@]2(C)CN1CCC(Cc2ccccc2)CC1	1300	16	649	–
C[C@@H]1CC[C@@H]2[C@H](C1)OCO[C@]2(C)CN1CCC(Cc2ccccc2)CC1	267	3.5	123	–
C[C@@H]1CC[C@@H]2[C@@H](C1)O[C@H]1CN(CCCCc3ccccc3)C[C@]2(C)O1	–	2100	–	inhibition [7]: 0%; fraction unbound [5]: < 0.02; inhibition [4]: 6%; logD [6]: 3.96
C[C@@H]1CC[C@@H]2[C@H](C1)OCO[C@@]2(C)CN1CCC(Cc2ccccc2)CC1	205	4.9	145	–
C[C@@H]1CC[C@@H]([C@](C)(O)CNCCCCc2ccccc2)[C@@H](O)C1	511	43	265	–
COc1ccc(CC2CCN(C[C@](C)(O)[C@@H]3CC[C@@H](C)C[C@H]3O)CC2)cc1	45	2.9	75	–
C[C@@H]1CC[C@@H]2[C@@H](C1)OCO[C@]2(C)CN1CCC(Cc2ccccc2)CC1	370	1.6	379	–
C[C@@H]1CC[C@@H]([C@@](C)(O)CN2CCC(Cc3ccccc3)CC2)[C@H](O)C1	53	1.2	36	Activity (Mus musculus [8]): inactive; Activity (Mus musculus [9]): Active; Activity (Mus musculus [10]): ~89%; fraction unbound [5]: 0.122; remaining at 1.5 h [11]: 19%; ED50 (Mus musculus [12]): ~8 mg/kg; logD [6]: 3.05
C[C@@H]1CC[C@@H]([C@@](C)(O)CNCCCCc2ccccc2)[C@@H](O)C1	1060	7	424	–
C[C@@H]1CC[C@@H]([C@@](C)(O)CNCCCCc2ccccc2)[C@H](O)C1	1300	8.2	850	fraction unbound [5]: 0.073; logD [6]: 1.84
Cc1cc(OCCN2CCOCC2)nn1-c1ccc2ccccc2c1	> 58	> 1000	–	ED50 (Mus musculus [13]): 26.3 mg/kg; Activity (Mus musculus [14]): Active; Activity (Mus musculus [15]): 43%
C[C@@H]1CC[C@@H]([C@@](C)(O)CN2CCC(Cc3ccccc3)CC2)[C@@H](O)C1	125	1	172	–
C[C@@H]1CC[C@@H]2[C@@H](C1)OCO[C@@]2(C)CN1CCC(Cc2ccccc2)CC1	36	5	119	logD [6]: 3.45
C[C@@H]1CC[C@@H]2[C@H](C1)OCO[C@]2(C)CNCCCCc1ccccc1	263	42	273	–
C[C@@H]1CC[C@@H]([C@](C)(O)CNCCCCc2ccccc2)[C@H](O)C1	508	31	207	–
C[C@@H]1CC[C@@H]2[C@H](C1)O[C@@H]1CN(CCCCc3ccccc3)C[C@@]2(C)O1	890	54	779	–
C[C@@H]1CC[C@@H]([C@](C)(O)CN2CCC(Cc3ccccc3)CC2)[C@@H](O)C1	363	18	216	–
C[C@@H]1CC[C@@H]2[C@H](C1)OC1CN(CCCCc3ccccc3)C[C@]2(C)O1 (single isomer, unassigned)	–	725	–	inhibition [7]: 0%; inhibition [4]: 0%
